± gives the standard deviation of the averaged measurements.
Legend:
[1] = compound: C[C@H](CN(C)C)Oc1nc(Nc2cc3cccc(Cl)c3cn2)cnc1C#N; experiment: surviving fraction relative to DMSO-only wells; higher = less growth inhibition; details: exposure time: 5 days
Procedure, shortened: (§1)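 For each tumour cell line, log-phase cells were put into 384-well plates at 250–500 cells per well, then after 24 hours exposed continuously for five days to inhibitors at 0.5, 1, 5, 10, 50, 100, 500 and 1000 nM. Viability was assessed by CellTiter-Glo luminescence, with surviving fraction expressed relative to the median of DMSO-only wells. Lines were screened three times and retained only if replicate Pearson r exceeded 0.7 and median Z' exceeded 0.3.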

[2] = compound: CCc1cc(Nc2nccc(-c3c(-c4ccc(OC)c(C(=O)Nc5c(F)cccc5F)c4)nc4ccccn34)n2)c(OC)cc1N1CCC(N2CCN(S(C)(=O)=O)CC2)CC1; experiment: as above; details: exposure time: 5 days
Procedure, shortened: as §1

Test System | surviving fraction ([1]; 0.5 nM) | surviving fraction ([1]; 1 nM) | surviving fraction ([1]; 5 nM) | surviving fraction ([1]; 10 nM) | surviving fraction ([1]; 50 nM) | surviving fraction ([1]; 100 nM) | surviving fraction ([1]; 500 nM) | surviving fraction ([1]; 1000 nM) | surviving fraction ([2]; 0.5 nM) | surviving fraction ([2]; 1 nM) | surviving fraction ([2]; 5 nM) | surviving fraction ([2]; 10 nM) | surviving fraction ([2]; 50 nM) | surviving fraction ([2]; 100 nM) | surviving fraction ([2]; 500 nM) | surviving fraction ([2]; 1000 nM)
22RV1 PROSTATE | 1.15 ± 0.15 | 1.02 ± 0.071 | 1.01 ± 0.074 | 1.06 ± 0.15 | 0.999 ± 0.046 | 0.887 ± 0.14 | 1.03 ± 0.037 | 0.838 ± 0.12 | 1 ± 0.014 | 1.02 ± 0.023 | 0.989 ± 0.014 | 0.953 ± 0.026 | 1.01 ± 0.024 | 0.991 ± 0.057 | 0.989 ± 0.033 | 0.946 ± 0.042
93VU HEADNECK | 0.995 ± 0.04 | 1.04 ± 0.079 | 1.04 ± 0.06 | 1.09 ± 0.039 | 1.03 ± 0.11 | 1.14 ± 0.1 | 0.865 ± 0.066 | 0.976 ± 0.09 | 1.03 ± 0.062 | 1.09 ± 0.15 | 1.1 ± 0.21 | 1.12 ± 0.063 | 1.11 ± 0.033 | 1.05 ± 0.089 | 0.932 ± 0.051 | 0.936 ± 0.094
143B BONE | 0.939 ± 0.1 | 1.08 ± 0.053 | 1.08 ± 0.035 | 1.05 ± 0.012 | 1.026 ± 0.0092 | 1.05 ± 0.024 | 0.519 ± 0.031 | 0.078 ± 0.021 | 0.985 ± 0.033 | 0.959 ± 0.086 | 0.928 ± 0.13 | 1.03 ± 0.031 | 0.9995 ± 0.0035 | 0.996 ± 0.052 | 0.999 ± 0.0042 | 0.959 ± 0.023
A549 LUNG | 1.04 ± 0.03 | 1.02 ± 0.02 | 1.02 ± 0.024 | 0.994 ± 0.018 | 1.09 ± 0.039 | 1.06 ± 0.039 | 0.967 ± 0.02 | 0.601 ± 0.027 | 0.954 ± 0.022 | 0.994 ± 0.045 | 0.995 ± 0.032 | 1.02 ± 0.033 | 0.983 ± 0.029 | 1.04 ± 0.036 | 1.01 ± 0.042 | 1.01 ± 0.034
ASKA SYNOVIAL | 1.05 ± 0.055 | 1.13 ± 0.083 | 1.11 ± 0.087 | 1.06 ± 0.082 | 0.994 ± 0.061 | 0.852 ± 0.041 | 0.432 ± 0.032 | 0.438 ± 0.0075 | 1.16 ± 0.063 | 1.17 ± 0.057 | 1.27 ± 0.088 | 1.16 ± 0.1 | 1.19 ± 0.017 | 1.2 ± 0.03 | 1.18 ± 0.03 | 1.04 ± 0.094
BT20 BREAST | 1.14 ± 0.095 | 1.15 ± 0.081 | 1.22 ± 0.083 | 1.14 ± 0.072 | 1.19 ± 0.093 | 1.31 ± 0.072 | 1.35 ± 0.079 | 1.21 ± 0.093 | 1.06 ± 0.11 | 1.01 ± 0.086 | 1.09 ± 0.018 | 1.13 ± 0.14 | 0.932 ± 0.068 | 0.941 ± 0.036 | 0.825 ± 0.074 | 0.707 ± 0.029
BT549 BREAST | 1.12 ± 0.055 | 1.14 ± 0.12 | 1.05 ± 0.1 | 1.1 ± 0.044 | 1.1 ± 0.076 | 0.896 ± 0.095 | 0.141 ± 0.024 | 0.0517 ± 0.011 | 1.03 ± 0.098 | 1.06 ± 0.033 | 1.14 ± 0.097 | 1.13 ± 0.082 | 1.07 ± 0.1 | 1.12 ± 0.1 | 1.08 ± 0.074 | 0.852 ± 0.019
C33A CERVIX | 0.856 ± 0.057 | 0.979 ± 0.11 | 0.903 ± 0.041 | 0.994 ± 0.094 | 0.97 ± 0.074 | 0.937 ± 0.14 | 0.524 ± 0.04 | 0.814 ± 0.054 | 0.755 ± 0.047 | 0.874 ± 0.086 | 1 ± 0.057 | 0.892 ± 0.11 | 1.01 ± 0.11 | 0.952 ± 0.031 | 0.832 ± 0.062 | 0.793 ± 0.051
CADOES1 SOFT TISSUE | 0.789 ± 0.054 | 0.94 ± 0.018 | 0.867 ± 0.069 | 0.894 ± 0.031 | 0.814 ± 0.14 | 0.726 ± 0.056 | 0.294 ± 0.048 | 0.148 ± 0.015 | 0.983 ± 0.048 | 0.983 ± 0.065 | 0.892 ± 0.12 | 0.885 ± 0.04 | 0.87 ± 0.1 | 1.05 ± 0.12 | 1.06 ± 0.12 | 1.08 ± 0.042
CAL51 BREAST | 0.939 ± 0.051 | 0.961 ± 0.065 | 1.03 ± 0.025 | 0.922 ± 0.047 | 0.982 ± 0.062 | 0.855 ± 0.053 | 0.272 ± 0.049 | 0.123 ± 0.037 | 0.995 ± 0.06 | 1 ± 0.025 | 0.998 ± 0.029 | 1.03 ± 0.068 | 1.02 ± 0.017 | 1.04 ± 0.05 | 1.03 ± 0.043 | 1.03 ± 0.042
CAL72 BONE | 1.06 ± 0.1 | 1.08 ± 0.13 | 1.06 ± 0.099 | 1.03 ± 0.12 | 1.09 ± 0.1 | 0.981 ± 0.12 | 0.402 ± 0.076 | 0.137 ± 0.037 | 1.06 ± 0.033 | 1.02 ± 0.026 | 1.03 ± 0.017 | 1.05 ± 0.025 | 1.08 ± 0.035 | 1.12 ± 0.032 | 1.13 ± 0.029 | 1.13 ± 0.033
CAL120 BREAST | 0.928 ± 0.063 | 0.922 ± 0.076 | 0.965 ± 0.057 | 0.934 ± 0.047 | 0.957 ± 0.069 | 0.917 ± 0.03 | 0.9 ± 0.07 | 0.745 ± 0.027 | 0.944 ± 0.013 | 0.9663 ± 0.0055 | 0.968 ± 0.013 | 0.976 ± 0.032 | 0.976 ± 0.032 | 0.977 ± 0.024 | 0.944 ± 0.031 | 0.945 ± 0.021
CASKI CERVIX | 0.839 ± 0.052 | 0.909 ± 0.086 | 0.959 ± 0.032 | 0.922 ± 0.02 | 1.009 ± 0.01 | 0.9417 ± 0.0087 | 0.217 ± 0.011 | 0.12 ± 0.01 | 0.937 ± 0.051 | 0.949 ± 0.055 | 0.97 ± 0.048 | 0.979 ± 0.04 | 0.946 ± 0.015 | 1.01 ± 0.043 | 0.967 ± 0.07 | 0.88 ± 0.039
CHLA90 AUTONOMIC GANGLIA | 0.977 ± 0.064 | 0.961 ± 0.058 | 0.913 ± 0.041 | 0.912 ± 0.034 | 0.94 ± 0.048 | 0.904 ± 0.075 | 0.46 ± 0.084 | 0.236 ± 0.048 | 0.955 ± 0.039 | 1 ± 0.011 | 0.969 ± 0.054 | 0.932 ± 0.028 | 0.9353 ± 0.0021 | 0.94 ± 0.05 | 0.986 ± 0.031 | 0.952 ± 0.055
CME SYNOVIAL | 1.21 ± 0.15 | 1.3 ± 0.16 | 1.28 ± 0.11 | 1.36 ± 0.18 | 1.32 ± 0.11 | 1.47 ± 0.17 | 1.14 ± 0.059 | 1.02 ± 0.15 | 1.4 ± 0.11 | 1.39 ± 0.21 | 1.39 ± 0.19 | 1.23 ± 0.05 | 1.36 ± 0.22 | 1.31 ± 0.089 | 0.913 ± 0.11 | 0.507 ± 0.034
COLO320DM LARGE INTESTINE | 1.04 ± 0.17 | 1.07 ± 0.09 | 1.01 ± 0.069 | 1.13 ± 0.068 | 1.06 ± 0.066 | 0.896 ± 0.084 | 0.235 ± 0.027 | 0.154 ± 0.027 | 1.08 ± 0.04 | 1.18 ± 0.11 | 1.17 ± 0.06 | 1.19 ± 0.071 | 1.19 ± 0.09 | 1.14 ± 0.095 | 1.11 ± 0.061 | 0.892 ± 0.041
DU4475 BREAST | 1 ± 0.29 | 0.794 ± 0.19 | 0.918 ± 0.04 | 0.753 ± 0.064 | 0.777 ± 0.2 | 1.18 ± 0.25 | 0.476 ± 0.076 | 0.337 ± 0.095 | 0.866 ± 0.12 | 0.937 ± 0.041 | 0.819 ± 0.072 | 1 ± 0.06 | 0.977 ± 0.28 | 0.832 ± 0.27 | 1.11 ± 0.34 | 1.19 ± 0.24
H23 LUNG | 1 ± 0.058 | 0.99 ± 0.033 | 1 ± 0.064 | 0.989 ± 0.024 | 1.06 ± 0.082 | 1.02 ± 0.038 | 1 ± 0.092 | 0.919 ± 0.079 | 0.939 ± 0.042 | 1.02 ± 0.032 | 0.973 ± 0.012 | 1.06 ± 0.078 | 0.997 ± 0.014 | 1.02 ± 0.038 | 1.02 ± 0.029 | 1 ± 0.032
HCC78 LUNG | 0.677 ± 0.09 | 0.908 ± 0.11 | 0.832 ± 0.17 | 0.984 ± 0.022 | 0.832 ± 0.15 | 0.919 ± 0.12 | 0.317 ± 0.1 | 0.131 ± 0.041 | 0.893 ± 0.21 | 0.819 ± 0.18 | 0.91 ± 0.14 | 0.859 ± 0.05 | 0.899 ± 0.32 | 0.864 ± 0.051 | 0.653 ± 0.19 | 0.657 ± 0.14
HCC202 BREAST | 1.08 ± 0.39 | 1.03 ± 0.41 | 1.22 ± 0.065 | 1.01 ± 0.022 | 0.984 ± 0.052 | 0.886 ± 0.34 | 0.413 ± 0.071 | 0.376 ± 0.04 | 1.11 ± 0.32 | 1.27 ± 0.15 | 1.21 ± 0.21 | 1.14 ± 0.17 | 1.4 ± 0.18 | 1.25 ± 0.13 | 1.14 ± 0.15 | 1.18 ± 0.05

From the supplement of paper PMC6045584
